Tests used:
[1] = system: velvetleaf; assay: Test A postemergence; format: in vivo, Abutilon theophrasti; conditions: Postemergence
Method in brief: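 Pre- and postemergence greenhouse test; loam+sand; cpd in non-phytotox. solvent/surfactant; post at 1–2 leaf, 2–10 cm; visual score ~10 d, 0 = none, 100 = complete control.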

[2] = system: johnsongrass; assay: Test C postemergence; format: in vivo, Sorghum halepense; conditions: for Plant response rating (scale of 0 to 100 where 0 is no effect and 100 is complete control), Johnsongrass: Postemergence, 31 g ai/ha, visually evaluated after 13 to 15 days; for Johnsongrass plant response rating / Plant response rating, Johnsongrass: postemergence; for Johnsongrass plant response rating: 62 g ai/ha, scale 0 to 100
Method in brief: (§1)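 Visual control ratings on a 0–100 scale (100 = complete control) made against untreated controls after 13 to 15 days in greenhouse. Compounds applied in surfactant-containing solvent mixture, either preemergence to loam/sand-sown seeds or postemergence to 1- to 4-leaf plants (2–18 cm) in peat medium.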

[3] = system: foxtail, giant; assay: Test C postemergence; format: in vivo, Setaria faberii; conditions: for Plant response rating (scale of 0 to 100 where 0 is no effect and 100 is complete control), Foxtail, Giant: Postemergence, 31 g ai/ha, visually evaluated after 13 to 15 days; for Foxtail, Giant plant response rating / Plant response rating, Foxtail, Giant: postemergence; for Foxtail, Giant plant response rating: 62 g ai/ha, scale 0 to 100
Method in brief: as §1

[4] = system: ragweed; assay: Test C preemergence; format: in vivo, Ambrosia elation; conditions: preemergence; for Plant response rating, Ragweed: 125 g ai/ha, scale 0 to 100, 0 = no effect, 100 = complete control
Method in brief: as §1

[5] = system: corn; assay: Test C preemergence; format: in vivo, Zea mays; conditions: preemergence; for Plant response rating, Corn: 125 g ai/ha, scale 0 to 100, 0 = no effect, 100 = complete control
Method in brief: as §1

[6] = system: galium; assay: Test C preemergence; format: in vivo, Galium aparine; conditions: preemergence; for Plant response rating, Galium: 125 g ai/ha, scale 0 to 100, 0 = no effect, 100 = complete control
Method in brief: as §1

[7] = system: blackgrass; assay: Test C preemergence; format: in vivo, Alopecurus myosuroides; conditions: preemergence; for Plant response rating, Blackgrass: 125 g ai/ha, scale 0 to 100, 0 = no effect, 100 = complete control
Method in brief: as §1

[8] = system: oilseed rape; assay: Test C preemergence; format: in vivo, Brassica napus; conditions: preemergence; for Plant response rating, Oilseed Rape: 125 g ai/ha, scale 0 to 100, 0 = no effect, 100 = complete control
Method in brief: as §1

[9] = system: soybean; assay: Test C preemergence; format: in vivo, Glycine max; conditions: preemergence; for Plant response rating, Soybean: 125 g ai/ha, scale 0 to 100, 0 = no effect, 100 = complete control
Method in brief: as §1

[10] = system: wheat; assay: Test C preemergence; format: in vivo, Triticum aestivum; conditions: preemergence; for Plant response rating, Wheat: 125 g ai/ha, scale 0 to 100, 0 = no effect, 100 = complete control
Method in brief: as §1

[11] = system: pigweed; assay: Test C preemergence; format: in vivo, Amaranthus retroflexus; conditions: preemergence; for Plant response rating, Pigweed: 125 g ai/ha, scale 0 to 100, 0 = no effect, 100 = complete control
Method in brief: as §1

[12] = system: chickweed; assay: Test C postemergence; format: in vivo, Stellaria media; conditions: for Plant response rating (scale of 0 to 100 where 0 is no effect and 100 is complete control), Chickweed: Postemergence, 31 g ai/ha, visually evaluated after 13 to 15 days; for Chickweed plant response rating / Plant response rating, Chickweed: postemergence; for Chickweed plant response rating: 62 g ai/ha, scale 0 to 100
Method in brief: as §1

[13] = system: waterhemp; assay: Test C preemergence; format: in vivo, Amaranthus rudis; conditions: preemergence; for Plant response rating, Waterhemp: 125 g ai/ha, scale 0 to 100, 0 = no effect, 100 = complete control
Method in brief: as §1

[14] = system: lambsquarters; assay: Test C postemergence; format: in vivo, Chenopodium album; conditions: for Plant response rating (scale of 0 to 100 where 0 is no effect and 100 is complete control), Lambsquarters: Postemergence, 31 g ai/ha, visually evaluated after 13 to 15 days; for Lambsquarters plant response rating / Plant response rating, Lambsquarters: postemergence; for Lambsquarters plant response rating: 62 g ai/ha, scale 0 to 100
Method in brief: as §1

[15] = system: wheat; assay: Test C postemergence; format: in vivo, Triticum aestivum; conditions: postemergence; for Plant response rating, Wheat: 250 g ai/ha, scale 0 to 100 (0 no effect, 100 complete control); for Wheat plant response rating: scale 0 to 100
Method in brief: as §1

[16] = 125 g ai/ha, 0 to 100 scale, 0 no effect, 100 complete control
[17] = 500 g ai/ha, 0 to 100 scale (0 no effect, 100 complete control)
[18] = 250 g ai/ha, scale 0 to 100 (0 no effect, 100 complete control)
[19] = 125 g ai/ha, scale 0 to 100, 0 no effect, 100 complete control
[20] = 31 g ai/ha, visual rating, scale 0 to 100 (0 no effect, 100 complete control), 13 to 15 days
[21] = 62 g ai/ha, scale 0 to 100 (0 no effect, 100 complete control), 13 to 15 days
[22] = 250 g ai/ha, scale 0 to 100, 0 is no effect, 100 is complete control

With `CCCc1cc(C(=O)NC2CC2)nn1Cc1cc(C(F)(F)F)nn1C` [Compound 202] the “Velvetleaf plant response rating” value [1, 16] was 70, the “Velvetleaf plant response rating” value [1, 17] was 90 and the “Plant response rating (scale of 0 to 100 where 0 is no effect and 100 is complete control), Johnsongrass” value [2] was 0. The “Johnsongrass plant response rating” value [2] was 5, the “Plant response rating, Johnsongrass” value [2, 18] was 25 and the “Plant response rating, Johnsongrass” value [2, 19] was 5. For the same compound, the “Plant response rating (scale of 0 to 100 where 0 is no effect and 100 is complete control), Foxtail, Giant” value [3] was 5, the “Foxtail, Giant plant response rating” value [3] was 10 and the “Plant response rating, Foxtail, Giant” value [3, 18] was 35. For the same compound, the “Plant response rating, Foxtail, Giant” value [3, 19] was 10, the “Ragweed plant response rating” value [4, 20] was 75 and the “Ragweed plant response rating” value [4, 21] was 95. For the same compound, the “Plant response rating, Ragweed” value ([4]; 13 to 15 days) was 95, the “Ragweed plant response rating” value [4, 22] was 100 and the “Corn plant response rating” value [5, 20] was 5. For the same compound, the “Corn plant response rating” value [5, 21] was 35, the “Plant response rating, Corn” value ([5]; 13 to 15 days) was 60 and the “Corn plant response rating” value [5, 22] was 95. The “Galium plant response rating” value [6, 20] was 98, the “Galium plant response rating” value [6, 21] was 100 and the “Plant response rating, Galium” value ([6]; 13 to 15 days) was 100. The “Galium plant response rating” value [6, 22] was 100, the “Blackgrass plant response rating” value [7, 20] was 10 and the “Blackgrass plant response rating” value [7, 21] was 85. The “Plant response rating, Blackgrass” value ([7]; 13 to 15 days) was 90, the “Blackgrass plant response rating” value [7, 22] was 90 and the “Oilseed Rape plant response rating” value [8, 20] was 100. The “Oilseed Rape plant response rating” value [8, 21] was 100, the “Plant response rating, Oilseed Rape” value ([8]; 13 to 15 days) was 100 and the “Oilseed Rape plant response rating” value [8, 22] was 100. For the same compound, the “Soybean plant response rating” value [9, 20] was 65, the “Soybean plant response rating” value [9, 21] was 70 and the “Plant response rating, Soybean” value ([9]; 13 to 15 days) was 85. For the same compound, the “Soybean plant response rating” value [9, 22] was 98, the “Wheat plant response rating” value [10, 20] was 0 and the “Wheat plant response rating” value [10, 21] was 85. The “Plant response rating, Wheat” value ([10]; 13 to 15 days) was 85, the “Wheat plant response rating” value [10, 22] was 90 and the “Pigweed plant response rating” value [11, 20] was 100. For the same compound, the “Pigweed plant response rating” value [11, 21] was 100, the “Plant response rating, Pigweed” value ([11]; 13 to 15 days) was 100 and the “Pigweed plant response rating” value [11, 22] was 100. For the same compound, the “Plant response rating (scale of 0 to 100 where 0 is no effect and 100 is complete control), Chickweed” value [12] was 75, the “Chickweed plant response rating” value [12] was 80 and the “Plant response rating, Chickweed” value [12, 18] was 85. The “Plant response rating, Chickweed” value [12, 19] was 80, the “Waterhemp plant response rating” value [13, 20] was 100 and the “Waterhemp plant response rating” value [13, 21] was 100. The “Plant response rating, Waterhemp” value ([13]; 13 to 15 days) was 100, the “Waterhemp plant response rating” value [13, 22] was 100 and the “Plant response rating (scale of 0 to 100 where 0 is no effect and 100 is complete control), Lambsquarters” value [14] was 70. The “Lambsquarters plant response rating” value [14] was 80, the “Plant response rating, Lambsquarters” value [14, 18] was 90 and the “Plant response rating, Lambsquarters” value [14, 19] was 85. For the same compound, the “Plant response rating, Wheat” value [15] was 5 and the “Wheat plant response rating” value [15] was 5.

For `CCc1cc(C(=O)NCC(F)(F)F)nn1Cc1ccnc(SC(F)(F)F)c1` [Compound 214], the “Velvetleaf plant response rating” value [1, 16] was 80, the “Velvetleaf plant response rating” value [1, 17] was 100 and the “Plant response rating (scale of 0 to 100 where 0 is no effect and 100 is complete control), Johnsongrass” value [2] was 0. The “Johnsongrass plant response rating” value [2] was 0, the “Plant response rating, Johnsongrass” value [2, 18] was 5 and the “Plant response rating, Johnsongrass” value [2, 19] was 5. For the same compound, the “Plant response rating (scale of 0 to 100 where 0 is no effect and 100 is complete control), Foxtail, Giant” value [3] was 5, the “Foxtail, Giant plant response rating” value [3] was 5 and the “Plant response rating, Foxtail, Giant” value [3, 18] was 20. The “Plant response rating, Foxtail, Giant” value [3, 19] was 15, the “Ragweed plant response rating” value [4, 20] was 85 and the “Ragweed plant response rating” value [4, 21] was 98. For the same compound, the “Plant response rating, Ragweed” value ([4]; 13 to 15 days) was 100, the “Ragweed plant response rating” value [4, 22] was 98 and the “Corn plant response rating” value [5, 20] was 0. The “Corn plant response rating” value [5, 21] was 0, the “Plant response rating, Corn” value ([5]; 13 to 15 days) was 35 and the “Corn plant response rating” value [5, 22] was 40. The “Galium plant response rating” value [6, 20] was 80, the “Galium plant response rating” value [6, 21] was 80 and the “Plant response rating, Galium” value ([6]; 13 to 15 days) was 90. For the same compound, the “Galium plant response rating” value [6, 22] was 80, the “Blackgrass plant response rating” value [7, 20] was 85 and the “Blackgrass plant response rating” value [7, 21] was 40. The “Plant response rating, Blackgrass” value ([7]; 13 to 15 days) was 90, the “Blackgrass plant response rating” value [7, 22] was 90 and the “Oilseed Rape plant response rating” value [8, 20] was 80. The “Oilseed Rape plant response rating” value [8, 21] was 95, the “Plant response rating, Oilseed Rape” value ([8]; 13 to 15 days) was 95 and the “Oilseed Rape plant response rating” value [8, 22] was 95. The “Soybean plant response rating” value [9, 20] was 60, the “Soybean plant response rating” value [9, 21] was 85 and the “Plant response rating, Soybean” value ([9]; 13 to 15 days) was 90. For the same compound, the “Soybean plant response rating” value [9, 22] was 95, the “Wheat plant response rating” value [10, 20] was 0 and the “Wheat plant response rating” value [10, 21] was 0. The “Plant response rating, Wheat” value ([10]; 13 to 15 days) was 10, the “Wheat plant response rating” value [10, 22] was 40 and the “Pigweed plant response rating” value [11, 20] was 100. For the same compound, the “Pigweed plant response rating” value [11, 21] was 100, the “Plant response rating, Pigweed” value ([11]; 13 to 15 days) was 100 and the “Pigweed plant response rating” value [11, 22] was 100. The “Plant response rating (scale of 0 to 100 where 0 is no effect and 100 is complete control), Chickweed” value [12] was 50, the “Chickweed plant response rating” value [12] was 55 and the “Plant response rating, Chickweed” value [12, 18] was 85. The “Plant response rating, Chickweed” value [12, 19] was 70, the “Waterhemp plant response rating” value [13, 20] was 100 and the “Waterhemp plant response rating” value [13, 21] was 100. For the same compound, the “Plant response rating, Waterhemp” value ([13]; 13 to 15 days) was 100, the “Waterhemp plant response rating” value [13, 22] was 100 and the “Plant response rating (scale of 0 to 100 where 0 is no effect and 100 is complete control), Lambsquarters” value [14] was 35. The “Lambsquarters plant response rating” value [14] was 50, the “Plant response rating, Lambsquarters” value [14, 18] was 80 and the “Plant response rating, Lambsquarters” value [14, 19] was 75. The “Plant response rating, Wheat” value [15] was 10 and the “Wheat plant response rating” value [15] was 5.

Reference: patent US20150105252A1, “SUBSTITUTED PYRAZOLES AS HERBICIDES” (E I DU PONT DE NEMOURS AND COMPANY, priority 2013, published 2015)
